Tests used:
Assay type in all cases: in vivo
[1] = system: Echinochloa crus-galli (ECHCG); assay: Herbicidal pre-emergence action, section A (Table A3); details: visual grading after ca. 3 weeks vs untreated controls
Text: (§1) Seeds of mono- and dicotyledonous weed plants were sown in plastic pots (double sowings with one species of mono- and one species of dicotyledonous weed plants per pot), in sandy loam, and covered with soil. The compounds according to the invention, formulated in the form of wettable powders (WP) or as emulsifiable concentrates (EC), were applied to the surface of the covering soil as aqueous suspension or emulsion, with the addition of 0.5% of an additive, at an application rate of 600 l of water per hectare (converted). Following treatment, the pots were placed in a greenhouse and kept under optimum growth conditions for the test plants. The visual grading of the damage to the test plants was carried out after ca. 3 weeks in comparison to untreated controls (herbicidal effect in percent (%): 100% effect=plants have died off, 0% effect=as control plants).

[2] = system: Kochia scoparia (KCHSC); assay: Herbicidal pre-emergence action, section A (Table A4); details: visual grading after ca. 3 weeks vs untreated controls
Text: as §1

[3] = system: Lolium rigidum (LOLRI); assay: Herbicidal pre-emergence action, section A (Table A5); details: application rate 1280 g/ha, visual grading after ca. 3 weeks vs untreated controls
Text: as §1

[4] = system: Matricaria inodora (MATIN); assay: Herbicidal pre-emergence action, section A (Table A6); details: application rate 1280 g/ha; visual grading after ca. 3 weeks vs untreated controls
Text: as §1

[5] = system: Poa annua (POAAN); assay: Herbicidal pre-emergence action, section A (Table A7); details: application rate 1280 g/ha, visual grading after ca. 3 weeks vs untreated controls
Text: as §1

[6] = system: Setaria viridis (SETVI); assay: Herbicidal pre-emergence action, section A (Table A8)
Text: as §1

[7] = system: Stellaria media (STEME); assay: Herbicidal pre-emergence action, section A (Table A9); details: application rate 1280 g/ha
Text: as §1

[8] = system: Amaranthus retroflexus (AMARE); assay: Herbicidal pre-emergence action, section A (Table A11); details: application rate 320 g/ha
Text: as §1

[9] = system: Digitaria sanguinalis (DIGSA); assay: Herbicidal pre-emergence action, section A (Table A12); details: application rate 1280 g/ha
Text: as §1

[10] = system: Abutilon theophrasti (ABUTH); assay: Herbicidal post-emergence action, section B (Table B1); details: application rate 1280 g/ha, rated visually after about 3 weeks
Method: (§2) Seeds of mono- and dicotyledonous weed plants were placed in plastic pots in sandy loam soil (doubly sown with in each case one species of mono- or dicotyledonous weed plants per pot), covered with soil and cultivated in a greenhouse under controlled growth conditions. 2 to 3 weeks after sowing, the test plants were treated at the one-leaf stage. The compounds of the invention, formulated in the form of wettable powders (WP) or as emulsion concentrates (EC), were applied onto the green parts of the plants as aqueous suspension or emulsion with addition of 0.5% additive at a water application rate of 600 liters per hectare (converted). After the test plants had been kept in the greenhouse under optimum growth conditions for about 3 weeks, the activity of the preparations was rated visually in comparison to untreated controls. For example, 100% activity=the plants have died, 0% activity=like control plants.

[11] = system: Kochia scoparia (KCHSC); assay: Herbicidal post-emergence action, section B (Table B4); details: visual rating about 3 weeks after treatment vs untreated controls
Method: as §2

[12] = system: Stellaria media (STEME); assay: Herbicidal post-emergence action, section B (Table B9); details: application rate 1280 g/ha, visual rating about 3 weeks after treatment vs untreated controls
Method: as §2

[13] = system: Amaranthus retroflexus (AMARE); assay: Herbicidal post-emergence action, section B (Table B11); details: visual rating about 3 weeks after treatment vs untreated controls; for post-emergence activity against AMARE in %: application rate 1280 g/ha
Method: as §2

[14] = system: Veronica persica (VERPE); assay: Herbicidal pre-emergence action, section A (Table A10); details: Veronica persica, 504 h, application rate 1280 g/ha, read-out: pre-emergence activity against VERPE in %
Text: as §1

[15] = system: Echinochloa crus-galli (ECHCG); assay: Herbicidal post-emergence action, section B (Table B3); details: application rate 1280 g/ha, rated visually after about 3 weeks
Method: as §2

[16] = system: Poa annua (POAAN); assay: Herbicidal post-emergence action, section B (Table B7); details: application rate 1280 g/ha, visual rating about 3 weeks after treatment vs untreated controls
Method: as §2

[17] = system: Veronica persica (VERPE); assay: Herbicidal post-emergence action, section B (Table B10); details: visual rating about 3 weeks after treatment vs untreated controls
Method: as §2

[18] = system: Echinochloa crus-galli (ECHCG); assay: Herbicidal pre-emergence action, section C (Table C3); details: Echinochloa crus-galli, pre-emergence, 504 h; application rate 320 g/ha; visual grading after ca. 3 weeks vs untreated controls; read-out: pre-emergence activity against ECHCG in %
Text: (§3) Seeds of mono- and dicotyledonous weed plants and crop plants were sown, in plastic or organic planting pots, in sandy loam and covered with soil. The compounds according to the invention, formulated in the form of wettable powders (WP) or as emulsifiable concentrates (EC), were applied to the surface of the covering soil as aqueous suspension or emulsion, with the addition of 0.5% of an additive, at an application rate of 600 l of water/ha (converted). Following treatment, the pots were placed in a greenhouse and kept under optimum growth conditions for the test plants. The visual grading of the damage to the test plants was carried out after ca. 3 weeks in comparison to untreated controls (herbicidal effect in percent (%): 100% effect=plants have died off, 0% effect=as control plants).

[19] = system: Setaria viridis (SETVI); assay: Herbicidal pre-emergence action, section C (Table C8); details: Setaria viridis, pre-emergence, 504 h; application rate 320 g/ha; visual grading after ca. 3 weeks; read-out: pre-emergence activity against SETVI in %
Text: as §3

[20] = system: Digitaria sanguinalis (DIGSA); assay: Herbicidal pre-emergence action, section C (Table C12); details: Digitaria sanguinalis, pre-emergence, 504 h; application rate 320 g/ha; visual grading after ca. 3 weeks; read-out: pre-emergence activity against DIGSA in %
Text: as §3

[21] = system: Zea mays (ZEAMX); assay: Pre-emergence effects on crop plants, section D (Table D1); details: application rate 320 g/ha; visual grading after ca. 3 weeks
Text: (§4) Seeds of mono- and dicotyledonous weed plants and crop plants were sown, in plastic or organic planting pots, in sandy loam and covered with soil. The compounds according to the invention, formulated in the form of wettable powders (WP) or as emulsifiable concentrates (EC), were applied to the surface of the covering soil as aqueous suspension or emulsion, with the addition of 0.5% of an additive, at an application rate of 600 l of water/ha (converted).
(§5) Following treatment, the pots were placed in a greenhouse and kept under optimum growth conditions for the test plants. The visual grading of the damage to the test plants was carried out after ca. 3 weeks in comparison to untreated controls (herbicidal effect in percent (%): 100% effect=plants have died off, 0% effect=as control plants).
(§6) Tables D1 to D5 below show the effects of various compounds of the general formula (I) according to Table 1 on various crop plants and an application rate corresponding to 320 g/ha or below obtained by the experimental procedure mentioned above in Biological Examples, Section C.

[22] = system: Triticum aestivum (TRZAS); assay: Pre-emergence effects on crop plants, section D (Table D2); details: application rate 320 g/ha; visual grading after ca. 3 weeks
Text: as §4, §5, §6

[23] = system: Zea mays (ZEAMX); assay: Post-emergence effects on crop plants, section F (Table F1); details: Zea mays, 504 h, application rate 80 g/ha, read-out: post-emergence activity against ZEAMX in %
Text: (§7) Seeds of mono- and dicotyledonous weed plants and crop plants were sown, in plastic or organic planting pots, in sandy loam, covered with soil and grown in a greenhouse under controlled growth conditions. 2 to 3 weeks after sowing, the test plants were sprayed in the single-leaf stage. The compounds according to the invention, formulated in form of wettable powders (WP) or as emulsifiable concentrates (EC), were sprayed onto the green plant parts as aqueous suspension or emulsion, with the addition of 0.5% of an additive, at an application rate of 600 l of water/ha (converted). The test plants were placed in the greenhouse for ca. 3 weeks under optimum growth conditions, and then the effect of the preparations was assessed visually in comparison with untreated controls (herbicidal effect in percent (%): 100% effect=plants have died off, 0% effect=as control plants). Tables F1 to F4 below show the effects of selected compounds of the general formula (I) according to Table 1 on various crop plants and an application rate corresponding to 320 g/ha or below obtained by the experimental procedure mentioned above.

[24] = system: Triticum aestivum (TRZAS); assay: Post-emergence effects on crop plants, section F (Table F2); details: Triticum aestivum, 504 h, application rate 320 g/ha, read-out: post-emergence activity against TRZAS in %
Text: as §7

[25] = system: Glycine max (GLXMA); assay: Post-emergence effects on crop plants, section F (Table F4); details: Glycine max, 504 h, application rate 320 g/ha, read-out: post-emergence activity against GLXMA in %
Text: as §7

Cc1cccc(F)c1-c1nc2c(cc1Br)SCN2 [Example I-032]
pre-emergence activity against ECHCG in % ([1]; application rate 320 g/ha): 100%
pre-emergence activity against KCHSC in % ([2]; application rate 1280 g/ha): 90%
pre-emergence activity against LOLRI in % [3]: 100%
pre-emergence activity against MATIN in % [4]: 90%
pre-emergence activity against POAAN in % [5]: 100%
pre-emergence activity against SETVI in % ([6]; application rate 320 g/ha): 100%
pre-emergence activity against STEME in % [7]: 100%
pre-emergence activity against AMARE in % [8]: 90%
pre-emergence activity against DIGSA in % [9]: 100%
post-emergence activity against ABUTH in % [10]: 90%
post-emergence activity against KCHSC in % ([11]; application rate 1280 g/ha): 90%
post-emergence activity against STEME in % [12]: 90%
post-emergence activity against AMARE in % [13]: 90%

CCCC(=O)N1CSc2cc(Br)c(-c3ccccc3Cl)nc21 [Example I-042, 1-[6-bromo-5-(2-chlorophenyl)[1,3]thiazolo[4,5-b]pyridin-3(2H)-yl]butan-1-one]
pest or weed control at 1280 g/ha ([1]; Echinochloa crus-galli, pre-emergence, 504 h, application rate 1280 g/ha, read-out: pre-emergence activity against ECHCG in %): 100%
pest or weed control at 320 g/ha ([2]; Bassia scoparia, pre-emergence, 504 h, application rate 320 g/ha, read-out: pre-emergence activity against KCHSC in %): 90%
pest or weed control at 1280 g/ha ([3]; Lolium rigidum, pre-emergence, 504 h, read-out: pre-emergence activity against LOLRI in %): 90%
pest or weed control at 1280 g/ha ([5]; Poa annua, pre-emergence, 504 h, read-out: pre-emergence activity against POAAN in %): 100%
pest or weed control at 1280 g/ha ([6]; Setaria viridis, 504 h, application rate 1280 g/ha, read-out: pre-emergence activity against SETVI in %): 100%
pest or weed control at 1280 g/ha ([7]; Stellaria media, 504 h, read-out: pre-emergence activity against STEME in %): 90%
pest or weed control at 1280 g/ha [14]: 90%
pest or weed control at 320 g/ha ([8]; Amaranthus retroflexus, 504 h, read-out: pre-emergence activity against AMARE in %): 90%
pest or weed control at 1280 g/ha ([9]; Digitaria sanguinalis, 504 h, read-out: pre-emergence activity against DIGSA in %): 100%
pest or weed control at 1280 g/ha ([10]; Abutilon theophrasti, 504 h, read-out: post-emergence activity against ABUTH in %): 90%
pest or weed control at 1280 g/ha ([15]; Echinochloa crus-galli, 504 h, read-out: post-emergence activity against ECHCG in %): 90%
pest or weed control at 320 g/ha ([11]; Bassia scoparia, post-emergence, 504 h, application rate 320 g/ha, read-out: post-emergence activity against KCHSC in %): 90%
pest or weed control at 1280 g/ha ([16]; Poa annua, post-emergence, 504 h, read-out: post-emergence activity against POAAN in %): 90%
pest or weed control at 1280 g/ha ([12]; Stellaria media, post-emergence, 504 h, read-out: post-emergence activity against STEME in %): 90%
pest or weed control at 1280 g/ha ([17]; Veronica persica, post-emergence, 504 h, application rate 1280 g/ha, read-out: post-emergence activity against VERPE in %): 90%
pest or weed control at 320 g/ha ([13]; Amaranthus retroflexus, post-emergence, 504 h, application rate 320 g/ha, read-out: post-emergence activity against AMARE in %): 90%

COC(=O)CCC(=O)N1CSc2cc(Br)c(-c3ccc(F)cc3F)nc21 [Example I-085]
pre-emergence activity against POAAN in % [5]: 100%
pre-emergence activity against SETVI in % ([6]; application rate 1280 g/ha): 100%
post-emergence activity against ABUTH in % [10]: 90%
post-emergence activity against ECHCG in % [15]: 90%
post-emergence activity against POAAN in % [16]: 90%
post-emergence activity against STEME in % [12]: 90%
post-emergence activity against VERPE in % ([17]; application rate 320 g/ha): 100%
post-emergence activity against AMARE in % [13]: 90%

COC(=O)CCC(=O)N1CSc2cc(Br)c(-c3sccc3Cl)nc21 [Example I-077, methyl 4-[6-bromo-5-(3-chloro-2-thienyl)-2H-thiazolo[4,5-b]pyridin-3-yl]-4-oxo-butanoate]
pest or weed control at 320 g/ha [18]: 90%
pest or weed control at 320 g/ha [19]: 90%
pest or weed control at 320 g/ha [20]: 90%
pre-emergence activity against ZEAMX in % (crop plant damage) [21]: 10%
pre-emergence activity against TRZAS in % (crop plant damage) [22]: 0%
percent crop plant damage (phytotoxicity) on Zea mays, post-emergence at 80 g/ha [23]: 0%
percent crop plant damage (wheat, post-emergence) at 320 g/ha [24]: 20%
percent crop plant damage at 320 g/ha [25]: 10%

From patent US20240381872A1, “SUBSTITUTED 2,3-DIHYDRO[1,3]THIAZOLO[4,5-B]PYRIDINES, SALTS THEREOF AND THEIR USE AS HERBICIDALLY ACTIVE SUBSTANCES” (BAYER AKTIENGESELLSCHAFT, priority 2021, published 2024)
